“Also recorded” adds a separate entry of the source.
Columns and labels:
Gbe1^neo/− MEF = assay: High throughput PAS-fluorescence screen of polyglucosan bodies in GBE-deficient MEF; type: cell-based, mouse
Experimental: Skin fibroblasts from wild type or Gbe1^neo/− E17.5 embryos were cultured to establish the MEF cell line by methods known in the art (FIG. 2). Diastase-resistant PAS positive staining was used specifically for carbohydrate staining. After paraformaldehyde fixation, cells were washed with PBS and normal glycogen was degraded by alpha-amylase digestion. The residual polysaccharides and PG in MEF were treated with periodic acid to oxidize sugars to aldehydes, which react with the Schiff reagent and stain pink. Although PAS staining was very efficient to detect PG (see FIGS. 2A, 2B, 2C, 2E, and 2G), the IN Cell 2000 cell detection system relies on fluorescence staining. PAS staining itself is fluorescent due to pararosanilin reagents, such as Rhodamine and TRITC, which can be excited (400 nm) and emits light detectable in red range ([…]) (FIGS. 2D, 2F and 2H).
To set up the automated detection system, control Gbe1^+/+ and Gbe1^neo/− MEFs were plated at different density on 384-well plates in order to obtain optimal cell density. A second important optimization regarded the diastase digestion of normal glycogen, keeping in mind that PGBs are resistant to diastase digestion and longer incubation times and/or higher enzyme concentrations are needed to digest PG. […] After diastase digestion, they were stained with PAS, and, after brief nuclear staining with Hoechst, the plates were analyzed by IN Cell 2000, GE Healthcare (Piscataway, N.J.), a high-throughput imaging system capable of performing high-content analysis using a wide array of micro plates. […] Automated quantitative results were obtained in terms of relative fluorescence per cell. Relative fluorescence per positive cells were analyzed and its significance were determined by z score according to plate average or by B score if there is a positional effect related to row and column that occurs in multi well plate cell cultures (Brideau et al. 2003). […]
1500 cells were plated per well to 384-well plates. […] The following day the cells were stained and analyzed as set forth in Example 3.

MEF = assay: Glycogen content of MEF grown in cobalt supplemented media; type: cell-based, mouse; conditions: n=3, FIG. 3B
Experimental: FIGS. 3A-3C show guaiacol decreases glycogen synthesis. […] FIG. 3C is a graph showing the results of relative glycogen content of cells grown in cobalt supplemented media after 3 days of guaiacol treatment at concentrations indicated on horizontal axis.
(§1) One hit was obtained corresponding to a compound that decreased polyglucosan synthesis more than 50% at 6.75 μM concentration (FIG. 3). […] This compound identified was guaiacol and has been used as an expectorant and flavoring food additive but is no longer being marketed for medical purposes.

[1] = system: HepG2 liver epithelial cell line; assay: Glycogen content in HepG2 cells cultured with cobalt chloride; type: cell-based; conditions: DMEM supplemented with 150 μM cobalt chloride; results not shown
Experimental: as §1

GYS1 = assay: Western blot of GYS1 phosphorylation in muscle extracts after oral guaiacol; type: in vivo, mouse; conditions: wild type mice, 45-720 mg/kg oral gavage, muscle extracts two hours after administration
Source text: FIG. 4 is a Western blot of GYS1 and GAPDH in muscle extracts obtained from wild type mice two hours after administration with guaiacol, suspended in water, in the indicated dosage amounts on the top panel by oral gavage.
Glycogen synthase is an allosteric enzyme that can be activated by glucose 6 phosphate or inactivated by phosphorylation of a serine residue on the enzyme. Thus, the phosphorylation status of GYS1 in muscle extracts which is the indicator of glycogen synthase activity was determined.
Wild type mice were administered guaiacol suspended in water at concentrations of 45, 90, 180, 360, and 720 mg/kg. Two hours after administration, muscle extracts were obtained and Western blot analysis of GYS1 was performed.

Gbe1^ys/ys mice [2] = assay: Tissue glycogen content in treated wild type and Gbe1^ys/ys mice; type: in vivo, mouse
Experimental: FIG. 5 is a graph depicting the results of heart, brain, muscle and liver glycogen content in wild type and Gbe1^ys/ys mice, and guaiacol-treated wild-type and Gbe1^ys/ys mice. Glycogen was measured after a 16 hour fast (n=4 for each treatment). Glycogen content is expressed as percent glucose mg/gram fresh tissue. Error bars represent the mean±SD, P<0.001 where indicated (*).
A mouse model of GBE deficiency created by knocking in via homologous recombination the most common human GBE1 mutation (p.Y329S) found in Ashkenazi Jewish patients has been developed by the inventors and designated Gbe1^ys/ys (Akman et al. 2015).
After one month of treatment, four mice from each group (untreated wild type and Gbe1^ys/ys mice and guaiacol-treated wild type and Gbe1^ys/ys mice) were sacrificed and tissue glycogen contents were measured as described by Pederson et al. 2004.

[3] = Glucose tolerance test (blood glucose); type: in vivo, mouse; conditions: after overnight fasting and glucose injection
Experimental: Blood glucose content was measured at times indicated in guaiacol-treated and untreated wild type and APBD (p.Y329s) mice. n=3 in each group.
After overnight fasting, mice were injected glucose and the blood glucose levels were measured.

[4] = system: AMP kinase alpha (AMPK-α); assay: Western blot of AMP kinase Thr 172 phosphorylation; type: in vivo, mouse; conditions: tissue extracts of treated wild type and Gbe1^ys/ys mice, relative to total AMPK-α
Source text: FIG. 7 is a Western blot of phospho AMPK-α and total AMPK in muscle extracts obtained from wild type and Gbe1^ys/ys mice, and guaiacol-treated wild type and Gbe1^ys/ys mice.
Glycogen synthesis and breakdown is regulated according to the energy state of the cell. When glucose is abundant amount of ATP is high and AMP kinase remains un-phosphorylated. However when glucose concentrations go down so do the ATP levels because it is being converted to ADP and AMP.

[5] = HPLC of AMP, ADP, ATP and adenosine in muscle extracts; type: in vivo, mouse; conditions: for decrease in adenosine levels: muscle
Source text: FIG. 8 is a graph depicting results of high performance liquid chromatography analysis of adenosine in muscle of wild type and Gbe1^ys/ys mice, and guaiacol-treated wild type and Gbe1^ys/ys mice.
[…], the heterotrimeric protein AMPK is formed by α, β, and γ subunits. Each of these three subunits takes on a specific role in both the stability and activity of AMPK. (Stapleton et al. 1996). Specifically, the γ subunit includes four particular cystathionine beta synthase (CBS) domains giving AMPK its ability to sensitively detect shifts in the AMP: ATP ratio. The four CBS domains create two binding sites for AMP commonly referred to as Bateman domains. Binding of one AMP to a Bateman domain cooperatively increases the binding affinity of the second AMP to the other Bateman domain (Akman et al. 2007).

Gbe1^ys/ys mice [6] = assay: Lifespan and disease signs of Gbe1^ys/ys mice on guaiacol in drinking water; type: in vivo, mouse
Experimental: FIG. 9 is a Kaplan-Meier plot which illustrates the incidence of death in Gbe1^ys/ys (n=47), versus wild type mice (n=29), and guaiacol-treated Gbe1^ys/ys and wild type mice (n=4 each).
(§2) Mice were treated with guaiacol in drinking water for 12 months every other day by preparing fresh guaiacol solution in water (3.8 g/liter or 3.1 ml/liter) considering the fact that an adult mouse drinks 6 ml water every day (Bachamov et al. 2002).
Treated Gbe1^ys/ys mice lived up to 24 months at time they were sacrificed as required by the protocol (FIG. 9).

[7] = Tolerability: grip tests and weight gain or loss; type: in vivo, mouse; conditions: 22.5 mg/kg in drinking water
Experimental: as §2

[8] = one month of treatment, 16 hour fast, n=4
[9] = treated Gbe1^ys/ys mice, long-term treatment

COc1ccccc1O [guaiacol]
decrease of polyglucosan synthesis (Gbe1^neo/− MEF; 6.75 μM, three days treatment, JHCCL screen): more than 50% | PAS stained granules in the cytosol (diastase treated) (Gbe1^neo/− MEF; 10 μM guaiacol, MEF cultures, FIG. 3A): decreased PAS stained granules | decrease of polyglucosan synthesis and accumulation (Gbe1^neo/− MEF; JHCCL screen, concentration not stated): 50% | glycogen content in MEF (MEF): decrease of glycogen content | glycogen content in HepG2 [1]: decreased glycogen content | phosphorylation of GYS1 compared to total GYS1 protein (GYS1): increased | glycogen in brain, muscle and heart (Gbe1^ys/ys mice [2]; as restated in Example 7): increased | glycogen content in the brain and muscle compared to untreated Gbe1^ys/ys mice (Gbe1^ys/ys mice [2]; later treatments, treated Gbe1^ys/ys mice): slight increase | glycogen content in brain heart and muscle (Gbe1^ys/ys mice [2]; [8]): did not change | glycogen content of the liver (Gbe1^ys/ys mice [2]; [8]): significant decrease; also recorded: decreased | duration of high blood glucose versus control mice [3]: remained high longer | blood glucose level versus control mice ([3]; wild type and APBD (p.Y329s) mice, n=3): higher blood glucose; also recorded: increases blood glucose concentration | Thr 172 phosphorylation of AMP kinase [4]: increased Thr 172 phosphorylation | AMP, ADP and ATP levels ([5]; muscle extracts, treated vs untreated wild type or Gbe1^ys/ys mice): no significant difference | decrease in adenosine levels ([5]; Gbe1^ys/ys mice, n=4, p<0.03): 48% | decrease in adenosine levels ([5]; wild-type mice, n=4, p<0.02): 53% | lifespan of treated mice (Gbe1^ys/ys mice [6]; Gbe1^ys/ys mice, guaiacol in drinking water, sacrificed at 24 months as required by protocol): up to 24 months | gait of treated mice (Gbe1^ys/ys mice [6]; treated Gbe1^ys/ys mice): spastic gait | penile prolapse in male mice (Gbe1^ys/ys mice [6]; treated Gbe1^ys/ys mice): did not have penile prolapse; also recorded: preventing penile prolapse | PG content in the liver (Gbe1^ys/ys mice [6]; [9]): decreased PG content | polyglucosan in the muscle brain and heart (Gbe1^ys/ys mice [6]; [9]): slightly higher polyglucosan | effect on animal behavior (grip tests, weight gain or loss) [7]: did not adversely affect the animal's behavior

Reference: patent US10933031B2, “Use of guaiacol for the prevention and treatment of glycogen storage disease” (THE TRUSTEES OF COLUMBIA UNIVERSITY IN THE CITY OF NEW YORK, priority 2016, dated 2021)
